Reference: BindingDB's records for doi:10.1021/acs.jnatprod.8b00507 (Chinese Academy of Sciences, 2019)

Assay: Inhibition of P-gp in doxorubicin-resistant human MCF7/ADR cells assessed as reversal of doxorubicin resistance by measuring doxorubicin IC50 incubated for 48 hrs by MTT assay (Rvb = doxorubicin alone = 64.8 +/- 2.1 uM)
In the case of `C=C1[C@H](OC(=O)c2ccccc2)[C@H]2[C@@H](OC(C)=O)[C@@H](C)C[C@]2(OC(C)=O)C(=O)[C@@H](C)/C=C/C(C)(C)C(=O)[C@H](O)[C@H]1OC(C)=O`, the IC50 is reported as 21.6 µM. With `C=C1[C@H](OC(C)=O)[C@H]2[C@@H](OC(=O)CC(C)=O)[C@@H](C)C[C@]2(O)C(=O)[C@@H](C)/C=C/C(C)(C)C(=O)[C@H](OC(C)=O)[C@H]1OC(=O)c1ccccc1` the IC50 was 10.3 µM. Molecule `C=C1[C@H](O)[C@H]2[C@@H](OC(=O)c3ccccc3)[C@](C)(O)C[C@]2(O)[C@H](OC(C)=O)[C@@H](C)/C=C/C(C)(C)C(=O)[C@H](OC(C)=O)[C@H]1OC(=O)c1ccccc1` has an IC50 of 28 µM. Molecule `C=C1[C@H](OC(=O)c2ccccc2)[C@@H](OC(C)=O)[C@@H](OC(C)=O)C(C)(C)/C=C/[C@H](C)C(=O)[C@@]2(OC(C)=O)C[C@H](C)[C@H](OC(=O)c3ccccc3)[C@@H]2[C@H]1OC(C)=O` has an IC50 of 9.9 µM. Work on `C=C1[C@H](OC(C)=O)CC(=O)C(C)(C)/C=C/[C@H](C)C(=O)[C@@]2(OC(C)=O)C[C@H](C)[C@H](OC(=O)c3ccccc3)[C@@H]2[C@H]1OC(C)=O` yielded an IC50 of 13.1 µM. For `C=C1[C@H](OC(C)=O)[C@H]2[C@@H](OC(=O)c3ccccc3)[C@](C)(OC(C)=O)C[C@]2(O)C(=O)[C@@H](C)/C=C/C(C)(C)C(=O)[C@H](OC(=O)C(C)C)[C@H]1OC(C)=O`, the IC50 was 5.3 µM. For `C=C1[C@H](OC(C)=O)[C@H]2[C@@H](OC(=O)c3ccccc3)[C@](C)(O)C[C@]2(O)C(=O)[C@@H](C)/C=C/C(C)(C)C(=O)[C@H](OC(C)=O)[C@H]1OC(=O)c1ccccc1`, the IC50 was 7.8 µM. Molecule `C=C1[C@H](OC(C)=O)[C@H]2[C@@H](OC(=O)c3ccccc3)[C@@H](C)C[C@]2(OC(C)=O)C(=O)[C@@H](C)/C=C/C(C)(C)C(=O)[C@H](O)[C@H]1OC(=O)c1ccccc1` has an IC50 of 9.5 µM. `C=C1[C@H](OC(C)=O)[C@H]2[C@@H](OC(=O)c3ccccc3)[C@@H](C)C[C@]2(OC(C)=O)C(=O)[C@@H](C)/C=C/C(C)(C)C(=O)[C@H](OC(C)=O)[C@H]1OC(=O)c1ccccc1` showed an IC50 of 8 µM. With `C=C1[C@H](OC(C)=O)[C@H]2[C@@H](OC(=O)c3ccccc3)[C@@H](C)C[C@]2(O)C(=O)[C@@H](C)/C=C/C(C)(C)C(=O)[C@H](O)[C@H]1OC(C)=O` the IC50 was 25.3 µM. Molecule `C=C1[C@H](OC(C)=O)[C@H]2[C@@H](OC(=O)c3ccccc3)[C@@H](C)C[C@]2(OC(C)=O)C(=O)[C@@H](C)/C=C/C(C)(C)C(=O)[C@H](O)[C@H]1OC(C)=O` has an IC50 of 13.3 µM. For `C=C1[C@H](OC(C)=O)CC(=O)C(C)(C)/C=C/[C@H](C)C(=O)[C@@]2(OC(C)=O)C[C@H](C)[C@H](OC(C)=O)[C@@H]2[C@H]1OC(=O)c1ccccc1`, the IC50 was 14.2 µM. In the case of `C=C1[C@H](OC(C)=O)[C@H]2[C@@H](OC(=O)c3ccccc3)[C@](C)(O)C[C@]2(O)C(=O)[C@@H](C)/C=C/C(C)(C)C(=O)[C@H](OC(=O)C(C)C)[C@H]1OC(C)=O`, the IC50 is reported as 5 µM. `C=C1[C@H](OC(C)=O)[C@H]2[C@@H](OC(=O)c3ccccc3)[C@](C)(OC(C)=O)C[C@]2(O)C(=O)[C@@H](C)/C=C/C(C)(C)C(=O)[C@H](OC(C)=O)[C@H]1OC(=O)C(C)C` gave an IC50 of 12.9 µM. Work on `C=C1[C@H](OC(=O)c2ccccc2)[C@H]2[C@@H](OC(C)=O)[C@@H](C)C[C@]2(OC(C)=O)C(=O)[C@@H](C)/C=C/C(C)(C)C(=O)[C@H](OC(=O)c2ccccc2)[C@H]1OC(C)=O` yielded an IC50 of 7.3 µM. For `C=C1[C@H](O)[C@H]2[C@@H](OC(=O)c3ccccc3)[C@](C)(OC(C)=O)C[C@]2(O)[C@H](OC(C)=O)[C@@H](C)/C=C/C(C)(C)C(=O)[C@H](OC(C)=O)[C@H]1OC(C)=O`, the IC50 was 20.6 µM. In the case of `C=C1[C@H](OC(C)=O)[C@H]2[C@@H](OC(=O)c3ccccc3)[C@@H](C)C[C@]2(OC(C)=O)C(=O)[C@@H](C)/C=C/C(C)(C)C(=O)[C@H](OC(C)=O)[C@H]1OC(C)=O`, the IC50 is reported as 9.6 µM.
